Test results from patent US9968634B2, “Techniques and systems for treatment of neuropathic pain and other indications” (priority 2012, dated 2018).

Tests used:
[1] = system: micro-capillary blood flow to skin; test: Laser Doppler study with closed Hilltop chamber on forearm, Example 5; type: in vivo, human; settings: applied to the skin at 1/10% in alcohol
Excerpt: The formulation used in these studies contained nitric oxide dispersed in a lipid matrix. […] Nitric oxide is a very rapid acting molecule, and these studies used a system that employed laser Doppler with a covered chamber. The formulation was placed into the chamber and then attached to the skin by an adhesive layer on the covering. This provided a stable measuring device as determined by multiple normal evaluations of the capillary blood flow without treatment of nitric oxide.
A known positive control, methyl nicotinate, was applied to the skin at a concentration of 1/10% in alcohol. […] The vascular dynamics are such that when the blood vessels dilate physical parameters follow Bernoulli's law. […] The laser Doppler device accurately measured these parameters.
In these studies, the participants were healthy females aged 30 to 55 years. They were in good health as determined by the medical history and were not taking any prescription medications. All study participants read and signed the informed consent statement prior to any study procedures being performed. […]
A Moor Instruments DRT4 Laser Doppler Blood Flow Monitor (Devon, England) was used in these studies. The laser Doppler technique measured blood flow in the microcapillaries of the skin that are close to the skin surface and the blood flow in underlying arterioles and venules that help to regulate skin temperature. […]

[2] = system: capillary circulation of the skin; test: Laser Doppler study of creams in five human subjects, Example 7; type: in vivo; settings: positive control formulation, 0.1% methyl nicotinate
Excerpt: This example illustrates delivery of nitric oxide formulations to five human subjects, using procedures and formulations similar to those discussed in Example 5. Each person served as their own control for the testing. A Moor Instruments Laser Doppler was used to determine circulation. […] The formulations used produce positive, almost immediate results when applied to the skin which, in these studies, was manifested by vasodilatation of the cutaneous vascular system.
For each subject, the following creams were applied: a negative control formulation (containing no NO), 0.010 gram of a 10,000 ppm NO formulation, 0.020 gram of a 10,000 ppm NO formulation, and a positive control formulation containing 0.1% methyl nicotinate. The formulations were prepared using procedures similar to those discussed in Example 1.

Compound: COC(=O)c1cccnc1 [methyl nicotinate]
- laser Doppler response of positive control [1]: rapid response typical of the vasodilator
- vasodilatation (laser Doppler) [2]: vasodilatation was observed
